{
  "source": "patent US20170290821A1",
  "about": "(priority 2014, published 2017)",
  "key": {"[1]": {"system": "influenza virus", "assay_type": "cell-based"}, "[2]": {"system": "HEK293 cells or A549 cells", "experiment": "Cell viability with inhibitors (CellTiter-Glo, Example 2), cell line not specified", "assay_type": "cell-based, human", "conditions": "for cell viability: 48 hours", "description": "Specifically, HEK293 cells or A549 cells were infected with an influenza virus with an MOI of 0.001. Cells 1 hour after the infection were washed and then cultured in a culture solution containing inhibitors, a DMSO solution (final concentration: 1 volume %) was used as a control instead of the inhibitors. […] In addition, a cell viability (%) was calculated using a CellTiter-Glo assay system (commercially available from Promega Corporation) according to the appended instructions. The number of cells cultured in a medium containing the inhibitors with respect to the number of living cells in cells cultured in a medium containing the control (the DMSO solution) was calculated as the cell viability (%)."}, "[3]": {"system": "A549 cells", "experiment": "Cell viability with inhibitors (CellTiter-Glo, Example 2), A549", "conditions": "0.2 μM", "description": "(§3) In addition, a cell viability (%) was calculated using a CellTiter-Glo assay system (commercially available from Promega Corporation) according to the appended instructions. The number of cells cultured in a medium containing the inhibitors with respect to the number of living cells in cells cultured in a medium containing the control (the DMSO solution) was calculated as the cell viability (%)."}, "[4]": {"molecular_target": "T1, adenine nucleotide transporter (ANT) (Homo sapiens, UniProt P05141)", "T1 sequence (P05141 1-298)": "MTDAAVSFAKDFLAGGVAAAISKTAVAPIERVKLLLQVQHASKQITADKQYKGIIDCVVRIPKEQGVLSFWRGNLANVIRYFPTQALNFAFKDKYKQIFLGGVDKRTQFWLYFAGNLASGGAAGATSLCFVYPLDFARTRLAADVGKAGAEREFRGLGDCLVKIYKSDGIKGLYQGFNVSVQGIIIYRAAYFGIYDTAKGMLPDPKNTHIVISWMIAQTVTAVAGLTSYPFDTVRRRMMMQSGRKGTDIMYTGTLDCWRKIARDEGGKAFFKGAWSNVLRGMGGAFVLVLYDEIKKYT", "conditions": "cited from earlier work"}, "[5]": {"system": "A549 cells", "description": "as §3"}, "[6]": {"experiment": "Cytotoxicity test (Cell Counting Kit-8), A549", "assay_type": "cell-based", "conditions": "human, A549 cells, read-out: CC50 (50% cytotoxicity concentration) (converted)"}, "[7]": {"experiment": "Cytotoxicity test (Cell Counting Kit-8), HEK293", "assay_type": "cell-based, human", "conditions": "human, 293 (HEK293) cells, read-out: CC50 (50% cytotoxicity concentration) (converted)", "method": "(§1) First, as test compound solutions, test compounds were prepared in 1% dimethylsulfoxide-containing MEMs so that a final concentration was 1000, 100, 10, 1, 0.1, 0.01, or 0.001 μM.\n(§2) Cell fluids in which MDCK cells, A549 cells, and HEK293 cells were prepared at concentrations of 6.25×10^5 cells/mL, 2.5×10^6 cells/mL, and 1.25×10^5 cells/mL in minimum essential mediums (MEMs) were added to a 96-well plate at 0.1 ml/well and the cells were seeded. The cells in the 96-well plate were cultured in a carbon dioxide incubator at 37° C. and washed with MEM the day after the seeding date. In the washed cells in the 96-well plate, 0.1 mL of each test compound solution was added to three wells for each concentration and the cells in the 96-well plate were then cultured in a carbon dioxide incubator at 37° C. for 48 hours. After the culture, a Cell Counting Kit-8 solution (commercially available from Dojindo Molecular Technologies, Inc.) was added to each well at 10 μL and culture was additionally performed at 37° C. for several hours. After the culture, an absorbance at 450 nm of a solution of each well in the 96-well plate was measured using a microplate reader. An absorbance value when a solvent (1% dimethylsulfoxide-containing MEM) was added in place of the test compound was set to 100% at which the whole cells survived. A final concentration value of the test compound when an absorbance was 50% was calculated as a 50% cytotoxicity concentration (CC50 value)."}, "[8]": {"system": "HEK293 cells", "experiment": "Cytotoxicity test (Cell Counting Kit-8), HEK293", "assay_type": "cell-based, human", "conditions": "293 (HEK293) cells, 48 hours", "method": "as §1, §2"}, "[9]": {"experiment": "Cytotoxicity test (Cell Counting Kit-8), MDCK", "assay_type": "cell-based, canine", "conditions": "dog, MDCK cells, read-out: CC50 (50% cytotoxicity concentration) (converted)", "method": "as §1\nas §2, with “A final concentration value of the test compound when an absorbance was 50% was calculated as a 50% cytotoxicity concentration (CC50 value).” left out"}},
  "note": "Counter-ions that a name gives are not always drawn. Like-named read-outs stand apart in the source and are kept apart here.",
  "data": [
    {"smiles": "CC(=O)C(C)=NO", "note": "[2,3-Butanedione 2-Monoxime]", "values": [
      {"measurement": "anti-influenza virus effect", "setting": "[1]", "value": "had an anti-influenza virus effect"},
      {"measurement": "cell viability", "setting": "[2]; 30 mM", "value": "significantly reduced"}
    ]},
    {"smiles": "CC(C)C[C@H](NC(=O)[C@H](Cc1ccccc1)NC(=O)c1cnccn1)B(O)O", "note": "[Bortezomib]", "values": [
      {"measurement": "virus titer reduced by a common logarithmic value", "setting": "[1]; 0.2 μM, A549 cells, MOI 0.001, 48 hours", "value": 4, "unit": "common logarithmic value"},
      {"measurement": "cytotoxicity", "setting": "[3]", "value": "without showing severe cytotoxicity"}
    ]},
    {"smiles": "C=C1[C@@H]2CC[C@H]3[C@]4(C)C[C@H](O[C@@H]5O[C@H](CO)[C@@H](OS(=O)(=O)O)[C@H](OS(=O)(=O)O)[C@H]5OC(=O)CC(C)C)CC(C(=O)O)(C(=O)O)[C@H]4CC[C@]3(C2)[C@H]1O", "note": "[Carboxyatractyloside]", "values": [
      {"measurement": "Ki", "setting": "[4]", "value": "< 0.01", "unit": "µM"}
    ]},
    {"smiles": "COc1cc2c(c(OC)c1OC)-c1ccc(OC)c(=O)cc1[C@@H](NC(C)=O)CC2", "note": "[Colchicine]", "values": [
      {"measurement": "virus titer reduced by a common logarithmic value", "setting": "[1]", "value": 2, "unit": "common logarithmic value"},
      {"measurement": "cytotoxicity", "setting": "[5]", "value": "without showing severe cytotoxicity"}
    ]},
    {"smiles": "N#C/C(=C\\c1ccc(O)c(O)c1)C(=O)NCc1ccccc1", "note": "[Compound J4, (E)-N-benzyl-2-cyano-3-(3,4-dihydroxyphenyl)acrylamide]", "values": [
      {"measurement": "CC50 at 48 h", "setting": "[6]", "value": 2690, "unit": "µM"}
    ]},
    {"smiles": "O=C(Nc1c[nH]nc1-c1nc2cc(CN3CCOCC3)ccc2[nH]1)NC1CC1", "note": "[Compound J7, 1-cyclopropyl-3-(3-(5-(morpholinomethyl)-1H-benzo[d]imidazol-2-yl)-1H-pyrazol-4-yl) urea]", "values": [
      {"measurement": "CC50 at 48 h", "setting": "[6]", "value": "> 316", "unit": "µM"}
    ]},
    {"smiles": "N#CCNC(=O)c1ccc(-c2ccnc(Nc3ccc(N4CCOCC4)cc3)n2)cc1", "note": "[Compound J8, N-(cyanomethyl)-4-(2-(4-morpholinophenylamino)pyrimidin-4-yl)benzamide]", "values": [
      {"measurement": "CC50 at 48 h", "setting": "[7]; HEK293 cells", "value": "> 316", "unit": "µM"}
    ]},
    {"smiles": "CN1CCN(c2cccc(Nc3nc4c(-c5ccc(S(C)(=O)=O)cc5)cccn4n3)c2)CC1", "note": "[Compound J11]", "values": [
      {"measurement": "CC50 (50% cytotoxicity concentration)", "setting": "[8]", "value": ">5.5 log10, nM"}
    ]},
    {"smiles": "Fc1cc(-c2cccc3ncc(-c4cnn(C5CCNCC5)c4)nc23)cc(F)c1CN1CCOCC1", "note": "[Compound J13, 8-(3,5-difluoro-4-(morpholinomethyl)phenyl)-2-(1-(piperidin-4-yl)-1H-pyrazol-4-yl)qui noxaline]", "values": [
      {"measurement": "CC50 at 48 h", "setting": "[7]; HEK293 cells", "value": 20.9, "unit": "µM"}
    ]},
    {"smiles": "CC(C)N(CCC(=O)c1ccc2ccccc2c1)Cc1ccccc1", "note": "[Compound J15, 1-propanone, 3-[(1-methylethyl)(phenylmethyl)amino]-1-(2-naphthalenyl)-, hydrochloride (1:1)]", "values": [
      {"measurement": "CC50 at 48 h", "setting": "[7]; HEK293 cells", "value": 47.9, "unit": "µM"}
    ]},
    {"smiles": "O=C(Nc1nc2cccc(-c3ccc(CN4CCS(=O)(=O)CC4)cc3)n2n1)C1CC1", "note": "[Compound J19, N-[5-[4-[(1,1-dioxido-4-thiomorpholinyl)methyl]phenyl][1,2,4]triazolo[1,5-a]pyridin-2-yl]cyclopropanccarboxamidc]", "values": [
      {"measurement": "CC50 at 48 h", "setting": "[9]", "value": "> 316", "unit": "µM"},
      {"measurement": "CC50 at 48 h", "setting": "[6]", "value": "> 316", "unit": "µM"},
      {"measurement": "CC50 at 48 h", "setting": "[7]; HEK293 cells", "value": "> 316", "unit": "µM"}
    ]},
    {"smiles": "COc1cc2ncnc(Nc3ccc(O)cc3)c2cc1OC", "note": "[Compound J20, 4-[(6,7-dimethoxy-4-quinazolinyl)amino]-phenol]", "values": [
      {"measurement": "CC50 at 48 h", "setting": "[7]; HEK293 cells", "value": "> 316", "unit": "µM"}
    ]},
    {"smiles": "Cl.Cl.Fc1cc(-c2cccc3ncc(-c4cnn(C5CCNCC5)c4)nc23)cc(F)c1CN1CCOCC1", "note": "[Compound J21, 4-[[2,6-difluoro-4-[3-(1-piperidin-4-ylpyrazol-4-yl)quinoxalin-5-yl]phenyl]methyl]morpholine; dihydrochloride]", "values": [
      {"measurement": "CC50 at 48 h", "setting": "[7]", "value": 38.9, "unit": "µM"}
    ]},
    {"smiles": "CN1C/C=C/CCOc2cccc(c2)-c2ccnc(n2)Nc2cccc(c2)C1", "note": "[Compound J23, 20-oxa-5,7,14,27-tetraazatetracyclo[19.3.1.12,6.18, 12]heptacosa-1(25),2,4,6(27),8,10,12(26),16,21,23-decane,14-methyl-]", "values": [
      {"measurement": "CC50 at 48 h", "setting": "[9]", "value": 7.94, "unit": "µM"},
      {"measurement": "CC50 at 48 h", "setting": "[6]", "value": 35.5, "unit": "µM"},
      {"measurement": "CC50 at 48 h", "setting": "[7]; HEK293 cells", "value": 52.5, "unit": "µM"}
    ]},
    {"smiles": "CCC[C@H](NC(=O)/C(C#N)=C/c1cccc(Br)n1)c1ccccc1", "note": "[Compound J25, (2E)-3-(6-bromo-2-pyridinyl)-2-cyano-N-[1S-phenylbutyl]-2-propenamide]", "values": [
      {"measurement": "anti-influenza virus effect", "setting": "[1]", "value": "had an anti-influenza virus effect"},
      {"measurement": "cell viability", "setting": "[2]; 50 μM", "value": "significantly reduced"},
      {"measurement": "CC50 (50% cytotoxicity concentration)", "setting": "[8]", "value": "3.69 log10, nM"}
    ]},
    {"smiles": "O=c1c(-c2ccc(O)cc2)coc2cc(O)cc(O)c12", "note": "[Genistein]", "values": [
      {"measurement": "anti-influenza virus effect", "setting": "[1]", "value": "had an anti-influenza virus effect"}
    ]},
    {"smiles": "Fc1cc(F)c2c(c1)C1C=CCC1C(c1cccnc1)N2", "note": "(centres unmarked) [Golgicide A]", "values": [
      {"measurement": "anti-influenza virus effect", "setting": "[1]", "value": "had an anti-influenza virus effect"},
      {"measurement": "effect on virus titer", "setting": "[1]", "value": "significantly reduced a virus titer"},
      {"measurement": "toxicity to host cells", "setting": "[2]; summary of Example 2", "value": "relatively low toxicity to host cells"}
    ]},
    {"smiles": "O=C1/C(=C/c2ccc(O)c(Br)c2)CCC/C1=C\\c1ccc(O)c(Br)c1", "note": "[Histone acetyltransferase inhibitor II]", "values": [
      {"measurement": "anti-influenza virus effect", "setting": "[1]", "value": "had an anti-influenza virus effect"}
    ]}
  ]
}
